Patent US4465676A, “16α Halogen substituted 3,17β-dihydroxy steroidal estrogens” (priority 1980, dated 1984)

Key:
[1] = tested on: testosterone-estradiol binding globulin; experiment: Binding to testosterone-estradiol binding globulin of human plasma
Excerpt: This protein contaminates most human tissue preparations, complicating the detection of sex steroid receptors.

[2] = Stability of the radiolabelled compound on storage; assay type: physicochemical
Protocol: In several experiments the yield of ^125 I-labeled estradiol ranged from 25 to 65 percent of the incubated ^125 I. The purified radioactive iodinated compound was stored at 0° to 4° C. in a benzene-methanol mixture (95:5).

[3] = molecular target: T1, rat uterine cytosol (estrogen receptor) (Rattus norvegicus, UniProt P06211); experiment: Binding to rat uterine cytosol, dextran-coated charcoal
T1 construct: incubated with cytoplasm from the uteri of rats; from tissue; host or cells: uterine cytosol of ovariectomized rats
T1 sequence (P06211 1-600): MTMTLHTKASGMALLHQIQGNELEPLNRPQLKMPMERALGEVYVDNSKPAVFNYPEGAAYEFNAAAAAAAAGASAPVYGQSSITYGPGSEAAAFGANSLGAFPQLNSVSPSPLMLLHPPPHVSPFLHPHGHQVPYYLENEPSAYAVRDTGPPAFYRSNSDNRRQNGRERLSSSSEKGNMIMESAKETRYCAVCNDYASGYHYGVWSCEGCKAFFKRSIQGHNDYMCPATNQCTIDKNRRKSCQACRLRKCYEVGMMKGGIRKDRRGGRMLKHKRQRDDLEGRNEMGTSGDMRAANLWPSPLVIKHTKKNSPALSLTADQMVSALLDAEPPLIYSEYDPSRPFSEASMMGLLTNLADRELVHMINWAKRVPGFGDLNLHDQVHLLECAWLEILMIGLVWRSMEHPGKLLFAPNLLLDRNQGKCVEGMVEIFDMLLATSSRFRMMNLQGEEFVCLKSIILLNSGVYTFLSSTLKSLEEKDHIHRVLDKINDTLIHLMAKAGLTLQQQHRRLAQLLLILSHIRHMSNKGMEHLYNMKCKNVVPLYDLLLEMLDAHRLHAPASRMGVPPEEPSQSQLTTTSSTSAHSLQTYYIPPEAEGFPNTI
Protocol: Metab. […] The homogenate was centrifuged at 4000 g for 10 minutes and the resulting supernatant for 60 minutes at 150,000 g. […] Samples were incubated for 4 hours at 0° to 2° C. Free steroid was removed by addition of 250 μl of a suspension of 0.5 percent dextran-coated charcoal. The tubes were mixed and then centrifuged at […] for 10 minutes.

[4] = molecular target: T2, calf uterine estrogen receptor (Bos taurus, UniProt P49884); experiment: Saturation and Scatchard analysis of the estrogen receptor from calf uterus; assay type: binding; conditions: calf uterine cytosol
T2 construct: Fresh calf uteri obtained from a slaughterhouse; from tissue; host or cells: calf uterus, 150,000 x g cytosol from lyophilized powder
T2 sequence (P49884 1-596): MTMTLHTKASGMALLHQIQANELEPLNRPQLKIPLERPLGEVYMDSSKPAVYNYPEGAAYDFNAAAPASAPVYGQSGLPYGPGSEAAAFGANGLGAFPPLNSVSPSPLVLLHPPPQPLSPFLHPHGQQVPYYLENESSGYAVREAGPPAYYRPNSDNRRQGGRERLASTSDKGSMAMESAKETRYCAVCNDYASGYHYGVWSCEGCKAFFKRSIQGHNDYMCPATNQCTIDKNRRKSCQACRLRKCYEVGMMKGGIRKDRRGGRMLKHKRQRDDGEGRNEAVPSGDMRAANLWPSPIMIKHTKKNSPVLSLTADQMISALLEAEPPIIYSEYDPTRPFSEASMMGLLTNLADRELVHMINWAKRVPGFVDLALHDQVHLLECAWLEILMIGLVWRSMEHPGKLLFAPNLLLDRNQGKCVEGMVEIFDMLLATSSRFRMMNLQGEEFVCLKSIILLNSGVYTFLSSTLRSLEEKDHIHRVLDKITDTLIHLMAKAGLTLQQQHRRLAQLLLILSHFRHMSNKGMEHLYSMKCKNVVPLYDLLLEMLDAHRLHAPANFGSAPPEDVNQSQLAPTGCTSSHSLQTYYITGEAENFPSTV
Protocol: Fresh calf uteri obtained from a slaughterhouse were brought to the laboratory on ice, immediately trimmed of fat, and cut into small pieces; the pieces were frozen in liquid nitrogen and pulverized. The pulverized frozen tissue was lyophilized, and the desiccated powder was stored under vacuum in sealed vials at -80° C. The uterine powders were usually used within 1 month of pulverization. When needed, the powders were suspended in 0.1M Tris-HCl, pH 7.4/2.5 mM EDTA/5 mM dithiotreithol (TED buffer) at 2.5 mg/ml and homogenized at 0° C. in a Polytron homogenizer with two or three pulses at 15 seconds each. The homogenate was then centrifuged at 150,000×g for 60 minutes and the resulting supernatant (cytosol), containing approximately 1 mg of protein per ml, was used for binding studies on the estrogen receptor.
After the solvent was removed under a stream of N2, 250 μl of cytosol was added and the samples were incubated at 0°-2° C. overnight. The following morning, 250 μl of a 0.5% suspension of dextran-coated charcoal in TED buffer was added to the tubes which then were mixed and centrifuged at 5000×g for 10 minutes. The supernatant was assayed to determine bound radioactivity.
A saturation analysis of the estrogen receptor from calf uterus was conducted. […] Nonspecific binding, specific binding and total binding were determined in parallel incubations containing 0.7 μM DES.
A Scatchard analysis of the estrogen receptor from calf uterus was also conducted.

[5] = molecular target: T3, estrogen receptors (rat uterine cytosol) (Rattus norvegicus, UniProt P06211); experiment: Kinetic experiments and Scatchard analyses in rat uterine cytosol
T3 sequence (P06211 1-600): T1 sequence (P06211 1-600)

Compound: C[C@]12CC[C@@H]3c4ccc(O)cc4CC[C@H]3[C@@H]1C[C@@H]([125I])[C@@H]2O [^125 I-E2, 16α-[^125 I]iodoestra-1,3,5(10)-triene-3,17β-diol]
- binding to testosterone-estradiol binding globulin [1]: does not bind
- decomposition on storage ([2]; weeks of storage at 0° to 4° C. in benzene-methanol (95:5)): no signs of decomposition
- decomposition on storage ([2]; weeks of storage of 4° C.): little sign of decomposition
- Radioactivity specifically bound, percent of added [3]: 56%
- Radioactivity Bound without DES ([3]; 98 μg cytosol protein, 4 hours at 0° to 2° C., added 69,600 (125I) or 63,600 (3H) count/min): 42,600 count/min
- Radioactivity specifically bound ([3]; bound without DES minus bound with DES): 38,800 count/min
- Radioactivity Bound with DES ([3]; with 7×10^-7 M DES (nonspecific binding)): 3,800 count/min
- radioactivity bound (binding capacities) [4]: 122,000 cpm
- Kd [5]: 0.27 nM
